In ChEMBL document CHEMBL1201862, “PubChem BioAssay data set” (2004):
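Five concentrations, 48 hours, 96-well plates. Abbreviation: GI50, concentration required for 50% inhibition of growth.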 The source made the active and inactive calls. No stated cut-off is given here; in the data, active = GI50 up to about 1.1 µM and inactive = higher.

Experiments:
Test in all cases: growth of human tumour cells (NCI), 48 h
SK-OV-3 = tested on: SK-OV-3
SF-295 = tested on: SF-295
SNB-75 = tested on: SNB-75
Malme-3M = tested on: Malme-3M
NCI-H522 = tested on: NCI-H522
786-0 = tested on: 786-0
UO-31 = tested on: UO-31
MOLT-4 = tested on: MOLT-4
OVCAR-5 = tested on: OVCAR-5
HCT-15 = tested on: HCT-15
OVCAR-3 = tested on: OVCAR-3
LOX IMVI = tested on: LOX IMVI
UACC-62 = tested on: UACC-62
HL-60 = tested on: HL-60
HCT-116 = tested on: HCT-116
HOP-92 = tested on: HOP-92

| SMILES | GI50 (SK-OV-3) | GI50 (SF-295) | GI50 (SNB-75) | GI50 (Malme-3M) | GI50 (NCI-H522) | GI50 (786-0) | GI50 (UO-31) | GI50 (MOLT-4) | GI50 (OVCAR-5) | GI50 (HCT-15) | GI50 (OVCAR-3) | GI50 (LOX IMVI) | GI50 (UACC-62) | GI50 (HL-60) | GI50 (HCT-116) | GI50 (HOP-92) |
| --- | --- | --- | --- | --- | --- | --- | --- | --- | --- | --- | --- | --- | --- | --- | --- | --- |
| [O-][S+]1c2ccccc2N=C(c2ccc3ccccc3c2)CC1C1=CC=CCC1 (stereo unspecified) | 30.5 µM (inactive) | 17.7 µM (inactive) | 17.9 µM (inactive) | 27.4 µM (inactive) | 16.9 µM (inactive) | 16 µM (inactive) | 13.8 µM (inactive) | 13.7 µM (inactive) | 18.9 µM (inactive) | 16.7 µM | 16.9 µM (inactive) | 15.4 µM (inactive) | 15.7 µM (inactive) | 17.6 µM (inactive) |  |  |
| CC1=C(C(=O)Nc2ccccc2)C(c2ccccc2)C(C(=O)Nc2ccccc2)=C(C)N1 | > 100 µM (inactive) | 38.5 µM (inactive) | 37.3 µM (inactive) | > 100 µM (inactive) | 16.3 µM (inactive) | 76.4 µM (inactive) | 71.6 µM (inactive) | 18.7 µM (inactive) | > 100 µM (inactive) | 23.4 µM | 40.4 µM (inactive) |  | 15.4 µM (inactive) | 16.3 µM (inactive) | 26.5 µM (inactive) | 29.3 µM (inactive) |
| C=C(C)CC(C)(c1cc2ccccc2n1C)N1CCOCC1 (stereo unspecified) | > 100 µM (inactive) | > 100 µM (inactive) | > 100 µM (inactive) | > 100 µM (inactive) | 10.6 µM (inactive) | > 100 µM (inactive) | 22.9 µM (inactive) | 40.3 µM (inactive) |  | 75.7 µM | 66.5 µM (inactive) | > 100 µM (inactive) | 45.1 µM (inactive) | 57 µM (inactive) | 60.1 µM (inactive) | 14.8 µM (inactive) |
| c1cnc2c(c1)-n1cccc1C1(CCOCC1)NN2 | > 100 µM (inactive) | > 100 µM (inactive) | > 100 µM (inactive) | > 100 µM (inactive) | > 100 µM (inactive) | > 100 µM (inactive) | > 100 µM (inactive) | > 100 µM (inactive) |  | > 100 µM | > 100 µM (inactive) |  |  | > 100 µM (inactive) | > 100 µM (inactive) | > 100 µM (inactive) |
| CN1C(=O)CC2(C)c3cc(O)cc(Br)c3N(C)C12 (stereo unspecified) | > 100 µM (inactive) | > 100 µM (inactive) | 30.8 µM (inactive) | > 100 µM (inactive) | > 100 µM (inactive) | > 100 µM (inactive) | 57.7 µM (inactive) | > 100 µM (inactive) | > 100 µM (inactive) | > 100 µM | > 100 µM (inactive) | > 100 µM (inactive) | 81.5 µM (inactive) |  | > 100 µM (inactive) | > 100 µM (inactive) |
| O=C(CC1C(=O)Nc2ccccc2S1(=O)=O)Nc1cc(Cl)ccc1Cl (stereo unspecified) |  | 17.5 µM (inactive) | 14.6 µM (inactive) | 17.9 µM (inactive) |  | 8.55 µM (inactive) | 15.6 µM (inactive) | 6.01 µM (inactive) | 24.4 µM (inactive) | 11.5 µM | 14.6 µM (inactive) | 5.37 µM (inactive) | 14.6 µM (inactive) | 11.8 µM (inactive) | 14.4 µM (inactive) | 14.2 µM (inactive) |
| Cc1ccc(NC(=O)C2C(=O)N(c3ccc(C)cc3)C(=O)/C2=N\NC(N)=S)cc1 (stereo unspecified) | > 100 µM (inactive) | > 100 µM (inactive) | > 100 µM (inactive) | > 100 µM (inactive) | > 100 µM (inactive) | > 100 µM (inactive) | > 100 µM (inactive) | > 100 µM (inactive) | > 100 µM (inactive) | > 100 µM | > 100 µM (inactive) | > 100 µM (inactive) | > 100 µM (inactive) |  | > 100 µM (inactive) | > 100 µM (inactive) |
| CC12CO[C@@](C)(CC(S(=O)(=O)c3ccccc3)C1)O2 (stereo partly specified) | > 100 µM (inactive) | > 100 µM (inactive) | 37 µM (inactive) | > 100 µM (inactive) | > 100 µM (inactive) | > 100 µM (inactive) | > 100 µM (inactive) | > 100 µM (inactive) | > 100 µM (inactive) | > 100 µM | > 100 µM (inactive) |  | > 100 µM (inactive) | > 100 µM (inactive) | > 100 µM (inactive) | > 100 µM (inactive) |
| C/C(=C\C(C[C@](C)(O)C(O)CCC#C[Si](C)(C)C)S(=O)(=O)c1ccccc1)CC/C=C/CO[Si](C)(C)C(C)(C)C (stereo partly specified) | 22.6 µM (inactive) | 16.5 µM (inactive) |  | 20.7 µM (inactive) | 16.2 µM (inactive) | 17 µM (inactive) | 21.9 µM (inactive) | 6.95 µM (inactive) | 13.7 µM (inactive) | 17.4 µM | 16 µM (inactive) | 13.2 µM (inactive) | 17.4 µM (inactive) | 14.9 µM (inactive) | 13.4 µM (inactive) | 11.9 µM (inactive) |
